Laboratory results: the supplement of paper PMC10307832

Legend:
Assay in all cases: relative viability (nuclei count vs DMSO), 5 days (fraction); higher = more cells survive
[1] = compound: CC1=NN=C(O1)C2=NN=C(C=C2)N3CCC(CC3)OC4=C(C=CC(=C4)F)Cl + Cc1nc(Nc2ncc(C(=O)Nc3c(C)cccc3Cl)s2)cc(N2CCN(CCO)CC2)n1 [Dasatinib] (partner 0.075 µM)
Summary of the method: (§1)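 One day after seeding in 1536-well plates, lung cancer cell lines were dosed by pin tool. Dosing was either single-drug or a fixed anchor-drug dose plus five library-drug doses (not always all listed) in √10 steps. After 5 days, nuclei were stained in one fix-and-stain step and counted on 4× images, and relative viability is the nuclei count of treated wells over that of vehicle wells, given as the median of duplicate plates.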

[2] = compound: CC(C)C[C@@H](C(=O)N[C@H](C(=O)OC1CCCC1)c1ccccc1)[C@H](O)C(=O)NO [Tosedostat] + Nc1ncn([C@H]2C[C@H](O)[C@@H](CO)O2)c(=O)n1 [Decitabine] (partner 2 µM)
Summary of the method: as §1

[3] = compound: CC1=NN=C(O1)C2=NN=C(C=C2)N3CCC(CC3)OC4=C(C=CC(=C4)F)Cl + CCNC(=O)c1noc(-c2cc(C(C)C)c(O)cc2O)c1-c1ccc(CN2CCOCC2)cc1 [Luminespib] (partner 0.01 µM)
Summary of the method: as §1

[4] = compound: CC(C)C[C@@H](C(=O)N[C@H](C(=O)OC1CCCC1)c1ccccc1)[C@H](O)C(=O)NO [Tosedostat] + CC(C)C[C@H](NC(=O)[C@H](Cc1ccccc1)NC(=O)c1cnccn1)B(O)O [Bortezomib] (partner 0.002 µM)
Summary of the method: as §1

Cell Line | relative viability ([1]; first compound 0.253 µM) | relative viability ([1]; first compound 0.8 µM) | relative viability ([1]; first compound 2.53 µM) | relative viability ([1]; first compound 8 µM) | relative viability ([2]; first compound 0.02 µM) | relative viability ([2]; first compound 0.06325 µM) | relative viability ([2]; first compound 0.2 µM) | relative viability ([2]; first compound 0.6325 µM) | relative viability ([2]; first compound 2 µM) | relative viability ([3]; first compound 0.253 µM) | relative viability ([3]; first compound 0.8 µM) | relative viability ([3]; first compound 2.53 µM) | relative viability ([3]; first compound 8 µM) | relative viability ([4]; first compound 0.02 µM) | relative viability ([4]; first compound 0.06325 µM) | relative viability ([4]; first compound 0.2 µM) | relative viability ([4]; first compound 0.6325 µM) | relative viability ([4]; first compound 2 µM)
LC-2-ad | 0.4 | 0.389 | 0.48 | 0.505 | 0.777 | 0.776 | 0.83 | 0.746 | 0.811 | 0.567 | 0.488 | 0.544 | 0.483 | 1.15 | 0.971 | 1.01 | 0.906 | 0.791
LCLC-97TM1 | 0.395 | 0.324 | 0.345 | 0.347 | 0.186 | 0.234 | 0.212 | 0.207 | 0.184 | 0.394 | 0.364 | 0.336 | 0.346 | 0.529 | 0.696 | 0.537 | 0.336 | 0.193
LCLC-103H | 0.401 | 0.392 | 0.449 | 0.427 | 0.792 | 0.745 | 0.728 | 0.763 | 0.76 | 0.678 | 0.74 | 0.537 | 0.582 | 1.1 | 0.947 | 1.05 | 1.25 | 1.06
LOU-NH91 | 0.473 | 0.517 | 0.512 | 0.509 | 0.82 | 0.797 | 0.806 | 0.726 | 0.74 | 0.317 | 0.318 | 0.307 | 0.315 | 0.5 | 0.545 | 0.484 | 0.564 | 0.44
LU99A | 0.517 | 0.674 | 0.728 | 0.509 | 0.906 | 0.769 | 0.909 | 0.744 | 0.693 | 0.224 | 0.227 | 0.246 | 0.199 | 1.11 | 1.04 | 1.08 | 0.94 | 0.761
LXF-289 | 0.209 | 0.234 | 0.195 | 0.227 | 0.409 | 0.392 | 0.365 | 0.387 | 0.328 | 0.477 | 0.378 | 0.547 | 0.395 | 1.05 | 0.992 | 0.974 | 0.978 | 0.989
NCI-H23 | 0.622 |  | 0.79 | 0.71 | 0.309 | 0.315 | 0.323 | 0.286 | 0.306 | 0.222 | 0.199 | 0.229 | 0.189 | 1.11 | 0.959 | 0.846 | 0.687 | 0.463
NCI-H322M | 0.255 | 0.315 | 0.268 | 0.29 | 0.69 | 0.652 | 0.587 | 0.636 | 0.621 | 0.815 | 0.796 | 0.726 | 0.648 | 1.36 | 0.853 | 1.2 | 1.1 | 1.08
NCI-H441 | 0.566 | 0.492 | 0.664 | 0.493 | 0.226 | 0.253 | 0.239 | 0.198 | 0.244 | 0.295 | 0.32 | 0.245 | 0.282 | 0.471 | 0.396 | 0.332 | 0.396 | 0.404
